Data from patent publication US20180256673A1, “METHODS FOR TREATING FUNGAL INFECTIONS” (priority 2015, published 2018).
Converted amounts (≈) assume the structure as drawn. “And” between values parts separate entries of the source, which are not always exact repeats. Equal values may be shown once. Read-outs that look alike come from different tables or passages of the source.

Experiments:
[1] = tested on: C. glabrata ATCC 90030, ATCC 2001; type: cell-based, Candida glabrata; conditions: for Freq. (replicate mutation frequency): replicate plates 1-3; for Plate concentration: SDA, minimum concentration to cleanly inhibit growth
Experimental: Spontaneous mutant selection. […] Three individual colonies from each strain were used to start cultures in RPMI. […] One milliliter aliquots were spread onto SDA plates containing drug with sterile glass beads. Starting viable count was enumerated by triplicate plating of serial dilutions of the starting inoculum. […] Glycerol stocks of putative mutant colonies were stored at −80° C. […] Spontaneous mutation frequencies were calculated by dividing the number of resistant colonies on a given plate by the starting inoculum plated. A subset of mutants (weighted heavily towards those selected with CMP1) were then evaluated by MIC and sequencing of FKS gene hot spot regions.

C. albicans NRRL Y-477 [2] = test: microbe, parasite or virus in culture; type: cell-based, Candida albicans; conditions: for MIC: Candida albicans
[3] = tested on: C. glabrata ATCC 90030, ATCC 2001; test: microbe, parasite or virus in culture; type: cell-based, Candida glabrata; conditions: for MIC fold-shift: WT to P20; for MIC: Nakaseomyces glabratus
C. parapsilosis CP02 [4] = test: microbe, parasite or virus in culture; type: cell-based, Candida parapsilosis; conditions: for MIC: Lodderomyces parapsilosis
[5] = tested on: C. parapsilosis vaginal isolates; test: Susceptibility testing of VVC clinical isolates at pH 7 and 4 (CLSI M27-A3); type: cell-based, Candida parapsilosis; conditions: 14 isolates, read-out: MIC90
[6] = tested on: C. tropicalis vaginal isolates; test: as above; type: cell-based; conditions: Candida tropicalis, 13 isolates, read-out: MIC90
Candida parapsilosis = test: Broth microdilution of invasive fungal isolates (CLSI M27-A3/M38-A2); type: cell-based; conditions: 92 isolates
Candida tropicalis = test: as above; type: cell-based; conditions: 51 isolates
Candida krusei = test: as above; type: cell-based; conditions: 16 isolates
[7] = tested on: Cryptococcus neoformans var. grubii; test: as above; type: cell-based; conditions: 19 isolates
C. albicans NRRL Y-477 [8] = test: Broth microdilution MIC (CLSI), Examples 3 and 4; conditions: Candida albicans
Experimental: Antifungal susceptibility testing. […] MIC assays were performed in triplicate.

C. parapsilosis CP02 [9] = test: Broth microdilution MIC (CLSI), Examples 3 and 4; conditions: Lodderomyces parapsilosis, CP02, 24 h, read-out: Broth MIC
Experimental: Antifungal susceptibility testing. Candida strains were cultured aerobically at 35° C. on SDA plates or in RPMI 1640 broth (pH 7.0). […] MIC assays were performed in triplicate.

CC[C@H](C)C[C@H](C)CCCCCCCCC(=O)N[C@H]1C[C@@H](O)[C@@H](NCCN)NC(=O)[C@@H]2[C@@H](O)CCN2C(=O)[C@H]([C@H](O)CCN)NC(=O)[C@H]([C@H](O)[C@@H](O)c2ccc(O)cc2)NC(=O)[C@@H]2C[C@@H](O)CN2C(=O)[C@H]([C@@H](C)O)NC1=O [CAS, caspofungin] was tested, and the Median mutation frequency ([1]; ATCC 2001) was 3.16E−08, the “Freq. (replicate mutation frequency)” value ([1]; ATCC 2001) was 3.16E−08 and 2.92E−08 and 3.50E−08 and the Median mutation frequency ([1]; ATCC 90030) was 3.45E−07. For the same compound, the “Freq. (replicate mutation frequency)” value ([1]; ATCC 90030) was 4.85E−07 and 3.45E−07 and 2.57E−07, the Plate concentration ([1]; ATCC 2001) was 0.5 µg/mL and the Plate concentration ([1]; ATCC 90030) was 0.5 µg/mL. The MIC (C. albicans NRRL Y-477 [2]; NRRLY477, 48 h, NRRL Y-477 P20-1, selecting drug ANID, Fks1 HS1 S645Y, 48 h read) was 2 µg/mL (≈ 1.83 µM), the MIC (C. albicans NRRL Y-477 [2]; NRRLY477, 48 h, NRRL Y-477 P20-1, selecting drug CMP1, 48 h read) was 0.5 µg/mL (≈ 0.457 µM) and the MIC (C. albicans NRRL Y-477 [2]; NRRLY477, NRRL Y-477 P20-1, selecting drug CAS) was 0.25 µg/mL (≈ 0.229 µM). It also gave an MIC (C. albicans NRRL Y-477 [2]; NRRLY477, read-out: MIC P20, NRRL Y-477, total population after 20 passages with the selecting drug, MIC of selecting drug) of 0.25 µg/mL, an MIC fold-shift (C. albicans NRRL Y-477 [2]; NRRL Y-477, WT to P20) of 1 and an MIC fold-shift ([3]; ATCC 2001) of 8. It also gave an MIC fold-shift ([3]; ATCC 90030) of 128, an MIC ([3]; 48 h, ATCC 90030 P20-1, selecting drug ANID, Fks2 HS1 D666I, 48 h read) of 2 µg/mL (≈ 1.83 µM) and an MIC ([3]; 48 h, ATCC 90030 P20-1, selecting drug CAS, Fks2 HS1 F659I D666Y, 48 h read) of 32 µg/mL (≈ 29.3 µM). For the same compound, the MIC ([3]; ATCC 2001 P20-2, selecting drug ANID, Fks1 HS1 D632Y) was 2 µg/mL (≈ 1.83 µM), the MIC ([3]; ATCC 2001 P20-2, selecting drug CAS) was 2 µg/mL (≈ 1.83 µM) and the MIC ([3]; ATCC 2001 P20-2, selecting drug CMP1) was 1 µg/mL (≈ 0.915 µM). It also gave an MIC ([3]; ATCC 90030 P20-2, selecting drug CMP1) of 1 µg/mL (≈ 0.915 µM), an MIC ([3]; read-out: MIC P20, ATCC 2001, total population after 20 passages with the selecting drug, MIC of selecting drug) of 2 µg/mL and an MIC ([3]; read-out: MIC P20, ATCC 90030, total population after 20 passages with the selecting drug, MIC of selecting drug) of 32 µg/mL. For the same compound, the MIC fold-shift (C. parapsilosis CP02 [4]; CP02, WT to P20) was 2, the MIC (C. parapsilosis CP02 [4]; CP02, CP02 P20-1, selecting drug ANID) was 0.5 µg/mL (≈ 0.457 µM) and the MIC (C. parapsilosis CP02 [4]; CP02, CP02 P20-1, selecting drug CAS) was 1 µg/mL (≈ 0.915 µM). It also gave an MIC (C. parapsilosis CP02 [4]; CP02, CP02 P20-1, selecting drug CMP1) of 1 µg/mL (≈ 0.915 µM), an MIC (C. parapsilosis CP02 [4]; CP02, read-out: MIC P20, CP02, total population after 20 passages with the selecting drug, MIC of selecting drug) of 1 µg/mL and an MIC90 ([5]; pH 4, 24 h) of 1 µg/mL (≈ 0.915 µM). The MIC90 ([5]; pH 4, 48 h) was 4 µg/mL (≈ 3.66 µM), the MIC90 ([5]; pH 7, 24 h) was 1 µg/mL (≈ 0.915 µM) and the MIC90 ([5]; pH 7, 48 h) was 2 µg/mL (≈ 1.83 µM). The MIC90 ([6]; pH 4, 24 h) was 1 µg/mL (≈ 0.915 µM), the MIC90 ([6]; pH 4, 48 h) was 2 µg/mL (≈ 1.83 µM) and the MIC90 ([6]; pH 7, 24 h) was 1 µg/mL (≈ 0.915 µM). The MIC90 ([6]; pH 7, 48 h) was 2 µg/mL (≈ 1.83 µM), the “Cumulative % of isolates inhibited at MIC 0.25 μg/mL” value (Candida parapsilosis) was “(33.7) %” and the “Cumulative % of isolates inhibited at MIC 0.5 μg/mL” value (Candida parapsilosis) was “(87.0) %”. The “Cumulative % of isolates inhibited at MIC 1 μg/mL” value (Candida parapsilosis) was “(98.9) %”, the “Cumulative % of isolates inhibited at MIC 2 μg/mL” value (Candida parapsilosis) was “(100.0) %” and the “Number of isolates inhibited at MIC 0.25 μg/mL” value (Candida parapsilosis) was 31. For the same compound, the “Number of isolates inhibited at MIC 0.5 μg/mL” value (Candida parapsilosis) was 49, the “Number of isolates inhibited at MIC 1 μg/mL” value (Candida parapsilosis) was 11 and the “Number of isolates inhibited at MIC 2 μg/mL” value (Candida parapsilosis) was 1. For the same compound, the MIC50 (Candida parapsilosis; Lodderomyces parapsilosis, read-out: MIC50) was 0.5 µg/mL (≈ 0.457 µM), the MIC90 (Candida parapsilosis; Lodderomyces parapsilosis, read-out: MIC90) was 1 µg/mL (≈ 0.915 µM) and the “Cumulative % of isolates inhibited at MIC 0.015 μg/mL” value (Candida tropicalis) was “(23.5) %”. For the same compound, the “Cumulative % of isolates inhibited at MIC 0.03 μg/mL” value (Candida tropicalis) was “(68.6) %”, the “Cumulative % of isolates inhibited at MIC 0.06 μg/mL” value (Candida tropicalis) was “(98.0) %” and the “Cumulative % of isolates inhibited at MIC 0.12 μg/mL” value (Candida tropicalis) was “(100.0) %”. For the same compound, the “Number of isolates inhibited at MIC 0.015 μg/mL” value (Candida tropicalis) was 12, the “Number of isolates inhibited at MIC 0.03 μg/mL” value (Candida tropicalis) was 23 and the “Number of isolates inhibited at MIC 0.06 μg/mL” value (Candida tropicalis) was 15. For the same compound, the “Number of isolates inhibited at MIC 0.12 μg/mL” value (Candida tropicalis) was 1, the MIC50 (Candida tropicalis; Candida tropicalis, read-out: MIC50) was 0.03 µg/mL (≈ 0.0274 µM) and the MIC90 (Candida tropicalis; Candida tropicalis, read-out: MIC90) was 0.06 µg/mL (≈ 0.0549 µM). The “Cumulative % of isolates inhibited at MIC 0.06 μg/mL” value (Candida krusei) was “(25.0) %”, the “Cumulative % of isolates inhibited at MIC 0.12 μg/mL” value (Candida krusei) was “(87.5) %” and the “Cumulative % of isolates inhibited at MIC 0.25 μg/mL” value (Candida krusei) was “(100.0) %”. The “Number of isolates inhibited at MIC 0.06 μg/mL” value (Candida krusei) was 4, the “Number of isolates inhibited at MIC 0.12 μg/mL” value (Candida krusei) was 10 and the “Number of isolates inhibited at MIC 0.25 μg/mL” value (Candida krusei) was 2. The MIC50 (Candida krusei; Pichia kudriavzevii, read-out: MIC50) was 0.12 µg/mL (≈ 0.11 µM), the MIC90 (Candida krusei; Pichia kudriavzevii, read-out: MIC90) was 0.25 µg/mL (≈ 0.229 µM) and the “Cumulative % of isolates inhibited at MIC 8 μg/mL” value [7] was “(21.1) %”. The “Cumulative % of isolates inhibited at MIC >8 μg/mL” value [7] was “(100.0) %”, the “Number of isolates inhibited at MIC 8 μg/mL” value [7] was 4 and the “Number of isolates inhibited at MIC >8 μg/mL” value [7] was 15. The MIC50 ([7]; Cryptococcus neoformans, read-out: MIC50) was 8 µg/mL (≈ 7.32 µM), the MIC90 ([7]; Cryptococcus neoformans, read-out: MIC90) was 8 µg/mL (≈ 7.32 µM) and the MIC (C. albicans NRRL Y-477 [8]; NRRLY477) was 0.5 µg/mL (≈ 0.457 µM). The MIC (C. albicans NRRL Y-477 [8]; NRRLY477, 24 h, read-out: Broth MIC) was 0.25 µg/mL (≈ 0.229 µM) and the MIC (C. parapsilosis CP02 [9]) was 0.5 µg/mL (≈ 0.457 µM).
